What was measured:
[1] = target: human orexin-2 receptor (Homo sapiens (Human), UniProt O43614); assay: FLIPR Ca2+ flux assay, hOX2R; format: cell-based; conditions: CHO cells expressing the receptor; agonist 70 pM Ala-6,12 human orexin-A
Method: The utility of the compounds in accordance with the present invention as orexin receptor OX1R and/or OX2R antagonists may be readily determined without undue experimentation by methodology well known in the art, including the “FLIPR Ca^2+ Flux Assay” (Okumura et al., Biochem. Biophys. Res. Comm. 280:976-981, 2001). In a typical experiment the OX1 and OX2 receptor antagonistic activity of the compounds of the present invention was determined in accordance with the following experimental method. For intracellular calcium measurements, Chinese hamster ovary (CHO) cells expressing the rat orexin-1 receptor or the human orexin-2 receptor, are grown in Iscove's modified DMEM containing 2 mM L-glutamine, […], 1% hypoxanthine-thymidine supplement, 100 U/ml penicillin, 100 μg/ml streptomycin and 10% heat-inactivated fetal calf serum (FCS). The cells are seeded at 20,000 cells/well into Becton-Dickinson black 384-well clear bottom sterile plates coated with poly-D-lysine. All reagents were from GIBCO-Invitrogen Corp. The seeded plates are incubated overnight at 37° C. and 5% CO2. Ala-6,12 human orexin-A as the agonist is prepared as a 1 mM stock solution in 1% bovine serum albumin (BSA) and diluted in assay buffer (HBSS containing 20 mM HEPES, 0.1% BSA and 2.5 mM probenecid, pH7.4) for use in the assay at a final concentration of 70 pM. Test compounds are prepared as 10 mM stock solution in DMSO, then diluted in 384-well plates, first in DMSO, then assay buffer. On the day of the assay, cells are washed 3 times with 100 μl assay buffer and then incubated for 60 min (37° C., 5% CO2) in 60 μl assay buffer containing 1 μM Fluo-4AM ester, 0.02% pluronic acid, and 1% BSA. The dye loading solution is then aspirated and cells are washed 3 times with 100 μl assay buffer. 30 μl of that same buffer is left in each well. Within the Fluorescent Imaging Plate Reader (FLIPR, Molecular Devices), test compounds are added to the plate in a volume of 25 μl, incubated for 5 min and finally 25 μl of agonist is added. Fluorescence is measured for each well at 1 second intervals for 5 minutes and the height of each fluorescence peak is compared to the height of the fluorescence peak induced by 70 pM Ala-6,12 orexin-A with buffer in place of antagonist. For each antagonist, IC50 value (the concentration of compound needed to inhibit 50% of the agonist response) is determined. Alternatively, compound potency can be assessed by a radioligand binding assay (described in Bergman et. al. Bioorg. Med. Chem. Lett. 2008, 18, 1425-1430) in which the inhibition constant (Ki) is determined in membranes prepared from CHO cells expressing either the OX1 or OX2 receptor. The intrinsic orexin receptor antagonist activity of a compound which may be used in the present invention may be determined by these assays.

[2] = target: hOX1R (orexin-1 receptor) (Homo sapiens, UniProt O43613); assay: FLIPR Ca2+ flux assay, hOX1R; format: cell-based; conditions: CHO cells expressing the receptor; agonist 70 pM Ala-6,12 human orexin-A

Sequence of human orexin-2 receptor (O43614 whole entry): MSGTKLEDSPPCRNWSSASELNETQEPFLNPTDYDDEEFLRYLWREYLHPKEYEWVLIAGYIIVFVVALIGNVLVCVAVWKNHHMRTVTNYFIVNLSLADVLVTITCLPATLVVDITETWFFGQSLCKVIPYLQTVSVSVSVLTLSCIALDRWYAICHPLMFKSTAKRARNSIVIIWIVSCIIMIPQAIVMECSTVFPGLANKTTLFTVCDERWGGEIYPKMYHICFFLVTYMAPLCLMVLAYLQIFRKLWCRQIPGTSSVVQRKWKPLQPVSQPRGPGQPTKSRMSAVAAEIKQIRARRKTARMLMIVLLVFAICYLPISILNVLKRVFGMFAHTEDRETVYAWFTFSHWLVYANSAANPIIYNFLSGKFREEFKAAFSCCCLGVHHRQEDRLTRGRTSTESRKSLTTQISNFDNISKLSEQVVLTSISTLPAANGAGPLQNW

Row | SMILES | IC50 [1] [nM] | IC50 [2] [nM]
1 | CCN(CCn1nc(C)c(C(C)(C)O)n1)C(=O)c1ccccc1-n1nccn1 [Example 20, N-Ethyl-N-(2-(4-(2-hydroxypropan-2-yl)-5-methyl-2H-1,2,3-triazol-2-yl)ethyl)-2-(2H-1,2,3-triazol-2-yl)benzamide] | 12 | 2860
2 | CCN(CCn1nc(C)c(C(C)(C)O)n1)C(=O)c1ccccc1OCC(F)F [Example 35, 2-(2,2-difluoroethoxy)-N-ethyl-N-(2-(4-(2-hydroxypropan-2-yl)-5-methyl-2H-1,2,3-triazol-2-yl)ethyl)benzamide] | 35 | > 10000
3 | CCOc1ccccc1C(=O)N(CC)CCn1nc(C)c(C(C)(C)O)n1 [Example 27, 2-ethoxy-N-ethyl-N-(2-(4-(2-hydroxypropan-2-yl)-5-methyl-2H-1,2,3-triazol-2-yl)ethyl)benzamide] | 27 | > 10000
4 | CCN(CCn1nc(C)c(C(C)(C)O)n1)C(=O)c1ccccc1OC(F)F [Example 25, 2-(difluoromethoxy)-N-ethyl-N-(2-(4-(2-hydroxypropan-2-yl)-5-methyl-2H-1,2,3-triazol-2-yl)ethyl)benzamide] | 35 | > 10000
5 | CCN(CCn1nc(C)c(C(C)(C)O)n1)C(=O)c1ccccc1-n1cccn1 [Example 29, N-ethyl-N-(2-(4-(2-hydroxypropan-2-yl)-5-methyl-2H-1,2,3-triazol-2-yl)ethyl)-2-(1H-pyrazol-1-yl)benzamide] | 28 | > 10000
6 | CCOc1ncccc1C(=O)N(CC)CCn1nc(C)c(C(C)(C)O)n1 [Example 23, 2-ethoxy-N-ethyl-N-(2-(4-(2-hydroxypropan-2-yl)-5-methyl-2H-1,2,3-triazol-2-yl)ethyl)nicotinamide] | 58 | > 10000
7 | CCN(CCn1ncc(C(C)(C)O)n1)C(=O)c1ccccc1OC(C)C [Example 18, N-ethyl-N-(2-(4-(2-hydroxypropan-2-yl)-2H-1,2,3-triazol-2-yl)ethyl)-2-isopropoxybenzamide] | 145 | > 10000
8 | CCN(CCn1nc(C)c(C(C)(C)O)n1)C(=O)c1ccccc1C1CC1 [Example 28, 2-cyclopropyl-N-ethyl-N-(2-(4-(2-hydroxypropan-2-yl)-5-methyl-2H-1,2,3-triazol-2-yl)ethyl)benzamide] | 13 | 1560

Now from value to compound:

Row | IC50 [1] [nM] | IC50 [2] [nM] | SMILES
9 | 180 | > 10000 | CCN(CCn1nc(C)c(C(C)(C)O)n1)C(=O)c1ncccc1-n1nccn1 [Example 43, N-ethyl-N-(2-(4-(2-hydroxypropan-2-yl)-5-methyl-2H-1,2,3-triazol-2-yl)ethyl)-3-(2H-1,2,3-triazol-2-yl)picolinamide]
10 | 106 | > 10000 | CCN(CCn1nc(C)c(C(C)(C)O)n1)C(=O)c1ncccc1-c1ccccc1 [Example 44, N-ethyl-N-(2-(4-(2-hydroxypropan-2-yl)-5-methyl-2H-1,2,3-triazol-2-yl)ethyl)-3-phenylpicolinamide]
11 | 35 | > 10000 | CCN(CCn1cc(C(C)(C)O)cn1)C(=O)c1ccccc1-n1nccn1 [Example 49, N-Ethyl-N-{2-[4-(1-hydroxy-1-methylethyl)-1H-pyrazol-1-yl]ethyl}-2-(2H-1,2,3-triazol-2-yl)benzamide]
12 | 13 | 7520 | CCN(CCn1nc(C)c(C(C)(C)O)n1)C(=O)c1cccnc1-n1cccn1 [Example 48, N-ethyl-N-(2-(4-(2-hydroxypropan-2-yl)-5-methyl-2H-1,2,3-triazol-2-yl)ethyl)-2-(1H-pyrazol-1-yl)nicotinamide]
13 | 10 | > 10000 | CCN(CCn1nc(C)c(C(C)(C)O)n1)C(=O)c1ccccc1CC(F)F [Example 37, 2-(2,2-difluoroethyl)-N-ethyl-N-(2-(4-(2-hydroxypropan-2-yl)-5-methyl-2H-1,2,3-triazol-2-yl)ethyl)benzamide]

From patent US10155750B2, “Amidoethyl azole orexin receptor antagonists” (Merck Sharp & Dohme Corp., priority 2014, dated 2018)
